# Results published in patent publication US20100216661A1, “Diagnostic Assay” (priority 2007, published 2010).
# Columns and labels:
# [1] = tested on: anti-Fy^b monoclonal antibody (LM447); assay: LiquiChip Ni-NTA microsphere bead assay (Luminex 100), anti-Fy^b; assay type: binding, Murine; settings: FIG. 11; peptide with C-terminal 6 Histidine tag; Luminex 100 Analyser
# Experimental: (§1) Further confirmation that the peptide mimotopes can specifically bind antibodies raised to native blood group antigens was achieved following the immobilisation of peptide mimotopes onto polystyrene LiquiChip Ni-NTA microsphere beads (Qiagen).
# (§2) Peptide mimotopes (e.g. Fyb16; RhD12) were synthesised with a C-terminal tag consisting of 6 Histidine amino acids. Stock solutions (4 μg/ml) of the 6×His tagged peptide mimotopes were prepared in PBS/0.1% BSA. The peptides were immobilised onto the beads using the Ni-NTA groups attached to the surface of the beads, as follows. A 50 μl volume of a 4 μg/ml peptide stock (Fyb16 or RhD12) was mixed with an equal volume of LiquiChip Ni-NTA beads (Bead 50 or Bead 52, respectively). Following incubation with mixing at 4° C. overnight, the Bead/peptide mixture was diluted with 900 μl of PBS/0.1% BSA. The Bead/peptide mixture was vortexed for 2 minutes and then a 10 μl volume was aliquoted into the well of a 96-well, round-bottomed. ELISA plate (Nunc). […] Confirmation of bound monoclonal antibody was determined by the detection of a phycoerythrin fluorochrome signal. The intensity of the signal equates to the quantity of monoclonal antibody bound to the immobilised peptide mimotope.
# [2] = tested on: anti-Fy^b monoclonal antibody (LM447); assay: Modified gel agglutination assay with superparamagnetic TALON beads, anti-Fy^b; assay type: binding, Murine; settings: FIG. 14; His-tagged peptide; TALON Dynabeads; NaCl gel card with sheep anti-mouse IgG; read visually; anti-RhD T27 as comparison chamber
# Experimental: (§3) The ability of peptide mimotopes to specifically bind antibodies was further tested using superparamagnetic polystyrene beads (TALON Dynabeads; Invitrogen) in a modified gel agglutination assay.
# (§4) A 50 μl volume of the magnetic beads was added to 700 μl of TBS (50 mM Tris-HCl pH7.5; 150 mM NaCl). Following mixing for 5 minutes at room temperature, the magnetic beads were isolated using a Magnetic Particle Concentrator (Invitrogen). The supernatant was discarded and the beads were washed for 5 minutes in 700 μl of TBS. The beads were again separated from the buffer using the MPC magnet, and then resuspended in 700 μl of TBS. Peptide mimotopes (e.g. Fyb16; RhD12) were synthesised with a C-terminal tag consisting of 6 Histidine amino acids. Stock solutions (100 μg/ml) of the 6×His tagged peptide mimotopes were prepared in PBS.
# To test the binding of a murine monoclonal antibody (e.g. LM447: anti-Fy^b monoclonal antibody), a 1 μl volume of sheep anti-mouse IgG is first added to the reaction chamber of an NaCl gel card and allowed to equilibrate with the gel matrix for 10 minutes at room temperature, prior to the addition of a 50 μl volume of diluted TALON beads, a 50 μl volume of diluted His-tagged peptide mimotope (e.g. Fyb16) and 100 μl of the test murine monoclonal antibody (e.g. LM447: anti-Fy^b). […] Again the reaction was read visually.
# [3] = tested on: anti-Fy^a monoclonal antibody (LM487); assay: Biopanning of phage-peptide libraries with anti-Fy^a LM487; assay type: binding, Murine; settings: three rounds of panning
# Text: Three different phage libraries from New England Biolabs. (Ph.D. 7 and Ph.D. 12 displaying linear 7- and 12-mer peptides, respectively and Ph.D. C7C displaying 7-mer peptides constrained by a disulphide bridge at their termini) and a linear 15mer library (kindly provided by Prof. George P. Smith, University of Missouri) were used in biopanning experiments with 10 different monoclonal antibodies and a polyclonal preparation (Table 1).
# For each target antibody/library combination, a separate well of a 96-well Immulon 4 flat-bottomed ELISA plate (Thermo Labsystems) was coated with 5 μg of antibody in 150 μl ELISA coating buffer (15 mM Na2CO3, 35 mM NaHCO3, pH9.6). Plates were sealed and incubated at 4° C. overnight. Unbound antibody was discarded and 350 μl of blocking buffer (0.1M NaHCO3/3% skimmed milk powder) was added to each well. Plates were sealed and incubated for 1 hour at 4° C. The blocking buffer was removed and the wells were washed six times with 300 μl TBS/0.1% Tween 20. Approximately 2×10^11 plaque forming units (pfu) in 100 μl TBS/0.1% Tween 20 were added to each well and the plates were incubated at room temperature for 1 hour. Wells were washed ten times with 300 μl TBS/0.1% Tween 20. […] The specificity of peptide-antibody binding was subsequently determined using both phage ELISA and SPOTs techniques.
# [4] = tested on: anti-Fy^a monoclonal antibody (LM487); assay: SPOTs membrane hybridisation with anti-Fy^a antibody; assay type: binding, Murine
# Experimental: The peptide mimotopes were synthesised by the SPOT method (Frank; 1992) using F-moc chemistry. The peptides were anchored to an amino-PEG derivatised cellulose membrane (Intavis AG) and synthesised as discrete spots. Synthesis was by stepwise elongation of the peptide chain from C-terminus to the N-terminus, by manual pipetting of the respective amino acids, according to the Sigma Genosys protocol. Incubation times were modified when using Intavis AG membranes. After addition of the final amino acid, the terminal residues and side chains of the peptides were deprotected and the membrane was washed with methanol; air dried and then stored at −20° C. prior to use.
# A membrane was placed in a 50 ml Falcon tube and blocked overnight at 4° C. with gentle agitation in TBS/0.25% Tween 20/5% skimmed milk powder. A 2 μg/ml dilution of the primary (1°) antibody (monoclonal or polyclonal) was prepared in TBS/0.25% Tween20/5% skimmed milk powder before incubation with the membrane for 1 hour at room temperature on a spiral rotor. Following 4 washes, each for 5 minutes with 20 ml of TBS/0.25% Tween20, the membrane was incubated for 1 hour at room temperature with a 1/5000 dilution of the secondary (2°) antibody, prepared in TBS/0.25% Tween20/5% skimmed milk powder. […] Bound antibody was detected by chemiluminescence. […]
# [5] = tested on: anti-RhD monoclonal antibody (T27); assay: Modified gel agglutination assay with superparamagnetic TALON beads, anti-RhD; assay type: binding, Human; settings: FIG. 13; His-tagged peptide; TALON Dynabeads; NaCl gel card; read visually; anti-Fy^b LM447 as comparison chamber
# Experimental: as §3, §4
# A 50 μl volume of diluted TALON beads was placed in the reaction chamber of an NaCl gel card (ID Microtyping System; Diamed), together with a 50 μl volume of diluted His-tagged peptide mimotope (e.g. RhD12) and 100 μl of test human monoclonal antibody (e.g. T27: anti-RhD). The gel card was incubated at 37° C. for 1 hour in an Incubator-ID (DiaMed). Following incubation, the card was centrifuged for 10 minutes in an ID Centrifuge 24S (DiaMed). Antibody-positive reactions are visualised by a layer of beads upon the surface of the gel matrix. […]
# [6] = tested on: anti-RhD monoclonal antibody (T27); assay: LiquiChip Ni-NTA microsphere bead assay (Luminex 100), anti-RhD; assay type: binding, Human; settings: FIG. 12; peptide with C-terminal 6 Histidine tag; Luminex 100 Analyser
# Experimental: as §1, §2
substance,measurement,setting,value
FQPNPPPSFAAP [Fyb16],Binding of anti-Fy^b antibody LM447 to peptide immobilised on LiquiChip Ni-NTA microsphere beads (phycoerythrin signal),[1],specific binding
same,"Binding of anti-Fy^b antibody LM447 to peptide on superparamagnetic polystyrene beads, modified gel agglutination assay",[2],specific binding
"Fya15: Fya peptide mimotope, Table 3; contains sequence identical to the Fy^a polymorphism (SDGDYGA)",Selection by biopanning with anti-Fy^a monoclonal antibody LM487,[3],bound
same,SPOTs binding of anti-Fy^a antibody LM487 to membrane-synthesised peptide,"[4]; FIG. 4, 37 peptides Fya1-37 synthesised as SPOTs",strong positive signal
"Fya20: Fya peptide mimotope, Table 3; contains sequence identical to the Fy^a polymorphism (GIAEDDYGALSW)",Selection by biopanning with anti-Fy^a monoclonal antibody LM487,[3],bound
"PDGDYGANLEAAAP [CPep118, 14-mer immunisation peptide used to generate the anti-Fy^a antibody, reference compound]",Reciprocal SPOTs hybridisation: binding of anti-Fy^a monoclonal antibody,"[4]; FIG. 5, Spots 1-37 = Fya 1-37, Spots 38-40 = Fya17, Fya25, Fya35, Spot 41 Cpep75, 42 Cpep76, 43 CPep118, 44 Fyb1, membranes hybridised in parallel with both antibodies",Fy^a-specificity
"RhD12: RhD peptide mimotope, Table 4 (HQNPWLLWPRGF)","Binding of anti-RhD antibody T27 to peptide on superparamagnetic polystyrene beads, modified gel agglutination assay",[5],specific binding
same,Binding of anti-RhD antibody T27 to peptide immobilised on LiquiChip Ni-NTA microsphere beads (phycoerythrin signal),[6],specific binding
